According to patent US20140031368A1, “SELECTIVE HDAC INHIBITORS” (THE TRUSTEES OF COLUMBIA UNIVERSITY IN THE CITY OF NEW YORK, priority 2010, published 2014):
pIC50: −log10 of the molar value.

Legend:
[1] = molecular target: HDAC1 (Homo sapiens, UniProt Q13547); assay: Fluorogenic HDAC assay kit (BPS Bioscience), HDAC1 inhibition; type: biochemical; conditions: purified/recombinant enzyme; inhibitor range 10,000-0.1 nM
Method: (§1) Various compounds were tested in in vitro enzyme assays for their activity in inhibiting HDAC6 and HDAC1. The assays used was a fluorogenic HDAC assay kit (BPS Bioscience, San Diego, Calif.). On a micotiter the HDAC fluorometric substrate containing an aceylated side chain is incubated with a sample containing HDAC activity (purified/recombinant HDAC1 or HDAC6 enzyme). The deacetylation sensitizes the substrate so subsequent treatment with a lysine developer produces a fluorophore that can then be measured using a fluorescence reader. The assay is performed in the absence and presence of the potential inhibitor compound.
(§2) Follow BPS Bioscience Fluorogenic HDAC Assay Kit (see Example 2). Range of inhibitor compounds tested: 10,000-0.1 nM

[2] = molecular target: T1, HDAC6 (Homo sapiens, UniProt Q9UBN7); assay: Fluorogenic HDAC assay kit (BPS Bioscience), HDAC6 inhibition; type: biochemical; conditions: for pIC50: purified/recombinant enzyme, inhibitor range 10,000-0.1 nM; for IC50 0 ratio (1/6): ratio IC50 HDAC1 / IC50 HDAC6
T1 sequence (Q9UBN7 1-1215): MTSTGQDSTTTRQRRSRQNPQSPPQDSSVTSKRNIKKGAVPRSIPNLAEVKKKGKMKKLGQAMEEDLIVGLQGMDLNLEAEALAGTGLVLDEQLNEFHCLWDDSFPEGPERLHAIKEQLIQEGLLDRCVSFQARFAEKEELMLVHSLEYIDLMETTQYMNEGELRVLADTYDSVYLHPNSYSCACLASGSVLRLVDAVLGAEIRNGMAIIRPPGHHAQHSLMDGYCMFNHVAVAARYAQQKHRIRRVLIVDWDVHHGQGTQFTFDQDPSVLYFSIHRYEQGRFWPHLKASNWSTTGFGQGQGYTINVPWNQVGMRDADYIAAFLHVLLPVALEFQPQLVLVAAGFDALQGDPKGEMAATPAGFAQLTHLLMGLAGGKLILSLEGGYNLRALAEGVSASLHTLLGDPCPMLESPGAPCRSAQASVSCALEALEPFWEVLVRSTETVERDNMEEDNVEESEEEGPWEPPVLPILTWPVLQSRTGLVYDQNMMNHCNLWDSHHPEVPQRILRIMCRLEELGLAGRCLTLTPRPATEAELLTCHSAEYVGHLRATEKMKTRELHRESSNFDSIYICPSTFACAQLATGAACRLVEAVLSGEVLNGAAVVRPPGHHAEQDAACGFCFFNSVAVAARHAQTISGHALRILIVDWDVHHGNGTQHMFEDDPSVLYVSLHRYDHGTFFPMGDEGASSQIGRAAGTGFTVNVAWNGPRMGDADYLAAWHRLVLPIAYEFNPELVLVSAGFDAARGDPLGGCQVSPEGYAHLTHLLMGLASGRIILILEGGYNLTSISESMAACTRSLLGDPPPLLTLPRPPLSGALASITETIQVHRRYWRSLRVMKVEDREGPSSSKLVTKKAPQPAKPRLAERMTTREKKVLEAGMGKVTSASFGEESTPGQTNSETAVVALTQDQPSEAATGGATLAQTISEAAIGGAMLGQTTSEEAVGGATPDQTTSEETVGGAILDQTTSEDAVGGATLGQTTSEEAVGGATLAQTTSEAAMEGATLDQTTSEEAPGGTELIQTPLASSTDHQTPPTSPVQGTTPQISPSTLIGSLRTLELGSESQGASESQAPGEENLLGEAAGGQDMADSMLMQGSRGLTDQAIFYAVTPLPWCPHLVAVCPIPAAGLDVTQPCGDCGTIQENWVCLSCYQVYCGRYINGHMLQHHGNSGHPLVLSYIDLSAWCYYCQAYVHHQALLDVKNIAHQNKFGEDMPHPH
Method: as §1, §2

[3] = system: HDAC genes in NPC-26 fibroblasts; assay: qRT-PCR of HDAC gene expression in NPC-26 fibroblasts; type: cell-based, human; conditions: NPC-26 fibroblasts treated with HDAC inhibitor; FIG. 3B
[4] = system: NP-C mutant fibroblasts; type: cell-based, human
[5] = system: NP-C fibroblasts; assay: Esterification of LDL-derived cholesterol (cholesteryl [3H]oleate formation) in NP-C fibroblasts; type: cell-based, human; conditions: 24 h treatment with 5 μM SAHA after 4 d in LPDS; FIG. 4B
Method: Cells were grown for 4 d in LPDS, followed by a 24 h treatment with or without 5 μM SAHA, the last 4 h of which included LDL plus [^3H]oleate. *P<0.05, treated vs. untreated cells by two-tailed Student's t-test.

Sequence of HDAC1 (Q13547 whole entry): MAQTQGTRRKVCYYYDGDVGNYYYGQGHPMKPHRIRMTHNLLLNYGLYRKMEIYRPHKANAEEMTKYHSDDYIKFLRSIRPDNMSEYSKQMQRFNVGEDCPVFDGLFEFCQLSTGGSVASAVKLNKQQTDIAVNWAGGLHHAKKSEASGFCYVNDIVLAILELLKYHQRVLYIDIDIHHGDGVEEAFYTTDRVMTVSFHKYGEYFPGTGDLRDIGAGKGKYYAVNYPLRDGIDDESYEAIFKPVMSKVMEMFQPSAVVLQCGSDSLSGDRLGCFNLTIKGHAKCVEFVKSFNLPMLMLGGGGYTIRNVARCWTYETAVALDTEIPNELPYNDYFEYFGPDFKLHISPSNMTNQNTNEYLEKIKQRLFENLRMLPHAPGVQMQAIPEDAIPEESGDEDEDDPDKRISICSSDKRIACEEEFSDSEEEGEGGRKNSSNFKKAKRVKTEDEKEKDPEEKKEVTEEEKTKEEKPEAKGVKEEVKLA

In the case of `CC(C)(C)c1ccc(CNC(=O)CCCCCCCC(=O)NO)cc1` [Compound 78], the pIC50 [1] was 6.17, the pIC50 [2] was 7.18 and the “IC50 0 ratio (1/6)” value [2] was 10.3.

For `O=C(CCCCCCC(=O)Nc1ccccc1)NO` [SAHA, suberoylanilide hydroxamic acid], the “HDAC gene expression (qRT-PCR)” value [3] was “restores expression in the direction of control cells”, the “lysosomal accumulation of unesterified cholesterol (filipin)” value [4] was “Reduction in lysosomal accumulation of unesterified cholesterol” and the “esterification of LDL-derived cholesterol (percent cholesteryl [3H]oleate formation relative to total lipids)” value [5] was “Restoration of deficient esterification of LDL-derived cholesterol”.

`O=C(CCCCCCNC(=O)c1ccc(C(C(=O)Nc2cccc3cccnc23)C(=O)Nc2cccc3cccnc23)cc1)NO` [Compound 61, 2-(4-(7-(hydroxyamino)-7-oxoheptylcarbamoyl)phenyl)-N1,N3-di(quinolin-8-yl)malonamide] was tested, and the pIC50 [1] was 5.98, the pIC50 [2] was 7.92 and the “IC50 0 ratio (1/6)” value [2] was 87.

With `O=C(CCCCCC(=O)Nc1ccc(C(C(=O)Nc2cccc3cccnc23)C(=O)Nc2cccc3cccnc23)cc1)NO` [Compound 31, N^1-(4-(1,3-dioxo-1,3-bis(quinolin-8-ylamino)propan-2-yl)phenyl)-N^7-hydroxyheptanediamide] the pIC50 [1] was 5.95, the pIC50 [2] was 7.66 and the “IC50 0 ratio (1/6)” value [2] was 51.

For `O=C(CCCCCCCC(=O)Nc1ccc(C(C(=O)Nc2cccc3cccnc23)C(=O)Nc2cccc3cccnc23)cc1)NO` [Compound 28, N^1-(4-(1,3-dioxo-1,3-bis(quinolin-8-ylamino)propan-2-yl)phenyl)-N^9-hydroxynonanediamide], the pIC50 [1] was 5.84, the pIC50 [2] was 7.24 and the “IC50 0 ratio (1/6)” value [2] was 25.

`O=C(CCCCCCC(=O)Nc1ccc(C(C(=O)Nc2cccc3cccnc23)C(=O)Nc2cccc3cccnc23)cc1)NO` [Compound 6, N^1-(4-(1,3-Dioxo-1,3-bis(quinolin-8-ylamino)propan-2-yl)phenyl)-N^8-hydroxyoctanediamide] was tested, and the pIC50 [1] was 6.62, the pIC50 [2] was 8.65 and the “IC50 0 ratio (1/6)” value [2] was 107.

In the case of `O=C(CCCCCCNC(=O)c1ccc(C(F)(C(=O)Nc2cccc3cccnc23)C(=O)Nc2cccc3cccnc23)cc1)NO` [Compound 65, 2-Fluoro-2-(4-(7-(hydroxyamino)-7-oxoheptylcarbamoyl)phenyl)-N1,N3-di(quinolin-8-yl)malonamide], the pIC50 [1] was 5.61, the pIC50 [2] was 7.38 and the “IC50 0 ratio (1/6)” value [2] was 58.

`O=C(CCCCCCC(=O)Nc1ccc(C(C(=O)Nc2ccccc2)C(=O)Nc2ccccc2)cc1)NO` [Compound 9, N^1-(4-(1,3-Dioxo-1,3-bis(phenylamino)propan-2-yl)phenyl)-N^8-hydroxyoctanediamide] was tested, and the pIC50 [1] was 6.89, the pIC50 [2] was 8.52 and the “IC50 0 ratio (1/6)” value [2] was 42.9.

With `CC(C)(C)OC(=O)Nc1ccc(-c2cc(C(=O)NCCCCCCC(=O)NO)no2)cc1` [Kozikowski compound, reference compound] the pIC50 [1] was 7.42.

`CC(C)(C)OC(=O)Nc1ccc(-c2csc(C(=O)NCCCCCCC(=O)NO)c2)cc1` [Compound 79] was tested, and the pIC50 [1] was 7.33, the pIC50 [2] was 8.36 and the “IC50 0 ratio (1/6)” value [2] was 10.6.

For `CC(C)(C)c1ccc(NC(=O)C(CCCCCC(=O)NO)C(=O)Nc2ccc(C(C)(C)C)cc2)cc1` [Compound 77], the pIC50 [1] was 6.97, the pIC50 [2] was 7.46 and the “IC50 0 ratio (1/6)” value [2] was 3.1.
